For data set [1], the system named is cGMP-specific PDE from HT29 cell extracts. As to the kind of experiment: cGMP-specific PDE inhibition. In kind it is biochemical, human. The procedure: (Thompson, W. J., Teraski, W. L., Epstein, P. M., Strada, S. J., Advances in Cyclic Nucleotide Research, 10:69-92, 1979, which is incorporated herein by reference). In brief, a solution of defined substrate ^3H-cGMP specific activity (0.2 μM; 100,000 cpm; containing 40 mM Tris-HCl (pH 8.0), 5 mM MgCl2 and 1 mg/mL BSA) is mixed with the drug to be tested in a total volume of 400 μl. The mixture is incubated at 30° C. for 10 minutes with isolated PDE of this invention. Reactions are terminated, for example, by boiling the reaction mixture for 75 seconds. After cooling on ice, 100 μl of 0.5 mg/mL snake venom (O. Hannah venom available from Sigma) is added and incubated for 10 minutes at 30° C. This reaction is then terminated by the addition of an alcohol, e.g. 1 mL of 100% methanol. Assay samples are applied to 1 mL Dowex 1-X8 column; and washed with 1 mL of 100% methanol. The amount of radioactivity in the breakthrough and the wash from the column is combined and measured with a scintillation counter. The degree of phosphodiesterase inhibition is determined by calculating the amount of radioactivity in drug-treated reactions and comparing against a control sample (a reaction mixture lacking the tested compound but with drug solvent).

Data set [2] can be described thus: Single, escalating dose human safety study. In kind it is in vivo. The conditions noted are these: oral.
The target of another data set is T1, COX I (Ovis aries, UniProt P05979).
T1 construct: COX-I purified from ram seminal vesicles; tissue Cayman Chemical; host or cells: ram seminal vesicles
T1 sequence (P05979 25-600): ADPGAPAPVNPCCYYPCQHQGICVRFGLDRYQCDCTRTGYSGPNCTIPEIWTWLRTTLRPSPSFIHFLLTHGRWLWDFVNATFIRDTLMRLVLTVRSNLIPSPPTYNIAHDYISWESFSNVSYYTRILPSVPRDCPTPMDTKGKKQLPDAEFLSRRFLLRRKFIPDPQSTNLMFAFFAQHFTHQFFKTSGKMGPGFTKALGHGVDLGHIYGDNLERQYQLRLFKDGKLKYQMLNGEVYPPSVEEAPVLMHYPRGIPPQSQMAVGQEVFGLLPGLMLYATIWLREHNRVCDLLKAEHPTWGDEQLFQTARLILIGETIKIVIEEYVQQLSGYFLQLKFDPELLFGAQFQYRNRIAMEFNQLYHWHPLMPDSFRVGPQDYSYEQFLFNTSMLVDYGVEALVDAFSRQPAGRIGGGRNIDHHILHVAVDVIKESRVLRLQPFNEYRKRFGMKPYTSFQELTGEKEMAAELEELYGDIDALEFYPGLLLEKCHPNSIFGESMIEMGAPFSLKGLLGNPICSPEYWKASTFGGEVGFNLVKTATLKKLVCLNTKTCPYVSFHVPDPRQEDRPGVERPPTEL
As to the kind of experiment: COX I inhibition. The conditions noted are these: at 100 μM. Type of data set: biochemical, ram.

Another data set relates to LNCaP cells. The data set is described as follows: Histone-associated fragmented DNA (apoptosis) in prostate tumor cells. In kind it is cell-based, human. The conditions noted are these: 50 μM Compound B (free base), up to 4 days. The procedure: (§1) The androgen-sensitive prostate tumor cell line, LNCaP (from ATCC (Rockville, Md.)) was propagated under standard conditions using […] medium containing 5% fetal calve serum and 2 mM glutamine. Primary prostate epithelial cell cultures (PrEC) derived from normal prostate (from Clonetics Inc. (San Diego, Calif.)) were grown under the same conditions as the tumor cell line except a serum-free medium optimized for the growth of such cultures was used (Clonetics Inc). For the experiments, LNCaP or PrEC cells were seeded in 96 well plates at a density of 10,000 cells per well. After 24 hours, the cells were treated with either vehicle (0.1% DMSO) or 50 μM Compound B (free base) solubilized in DMSO. After various drug treatment times ([…]) the cells were lysed and processed for measurement of histone-associated DNA as an indicator of apoptotic cell death (see, Piazza et al., Cancer Research 57: 2452-2459, 1997).

The next data set deals with PrEC cells. As to the kind of experiment: Histone-associated fragmented DNA (apoptosis) in normal prostate epithelial cells. Type of data set: cell-based, human. The conditions noted are these: 50 μM, up to 4 days. The procedure:
as §1

The test system of the next data set is K-562. As to the kind of experiment: Neutral red growth inhibition. In kind it is cell-based, human. The settings on record: K-562, Leukemia, HCl salt. On the procedure: (§2) Compound B's activity is not confined to activity against colon cancer cell lines or animal models of colon cancer. It has a broad range of anti-neoplastic effects in various neoplastic cell lines. Various types of human cancer cell lines were propagated under sterile conditions in RPMI 1640 medium with 10% fetal bovine serum, 2 mM L-glutamine and sodium bicarbonate. To determine growth inhibitory effects of Compound B, cells were seeded in 96-well plates at a density of 1000 cells per well. […] The effect of the drug on tumor cell growth was determined using the neutral red cytotoxicity assay following five days of continuous treatment. Neutral red is a dye that is selectively taken up by viable cells by an ATP-dependent transport mechanism.

A further data set deals with Molt-4. As to the kind of experiment: Neutral red growth inhibition. In kind it is cell-based, human. The conditions noted are these: Molt-4, Leukemia, HCl salt. The procedure: as §2
The next data set relates to PANC-1. The data set is described as follows: Neutral red growth inhibition. The settings on record: PANC-1, Pancreas, HCl salt. In kind it is cell-based, human. The procedure:
as §2

A short description of data set [3]: Seven-day dose-range finding study in rats. The settings on record: seven days.

From patent US6569638B1, “Method for screening compounds for the treatment of neoplasia” (Cell Pathways, Inc, priority 2000, dated 2003) come the findings set out here.

Broadly, the IC50 is the concentration at which inhibition is half-maximal. Read a high IC50 as weaker potency. In general, GI50 refers to the concentration at which growth is held to half of that of the control.

`CC1=C(CC(=O)NCc2ccccc2)c2cc(F)ccc2/C1=C\c1ccncc1.Cl` [Compound B, (Z)-5-fluoro-2-methyl-(4-pyridylidene)-3-(N-benzyl)indenylacetamide hydrochloride] returned an IC50 in [1] of 0.68 µM. The side effects result in data set [2] is “no significant side effects at any dose”. Moreover, on COX I, the “COX I inhibition” value is “less than 25%”. Besides, the “histone-associated fragmented DNA” value with LNCaP cells is “significant increase in fragmented DNA was detected after 24 hours of treatment”. Further, in the data set with PrEC cells, the DNA fragmentation entry was “did not affect DNA fragmentation”. For the same compound, the GI50 was found to be 1.8 µM with K-562, 1.6 µM in the data set on Molt-4 and 2.2 µM in the data set on PANC-1. For the same compound, the signs of toxicity result in [3] (50 mg/kg/day) was “no observable signs of toxicity”. The treatment-related effects result is “an increase in absolute and relative liver weights in female rats” in data set [3] (500 mg/kg/day); “labored breathing and/or abnormal respiratory sounds, decreased weights gains and food consumption in male rats, and increased liver weights in female rats” in [3] (2000 mg/kg/day).
